Data set [1] concerns Phakospora pachyrhizi. The data set can be described thus: in vivo preventive test on Phakospora pachyrhizi (soybean rust). To be noted: for efficacy: 500 ppm; for pest or weed control at 500 ppm: Glycine max, 264 h, 500 ppm of active ingredient, preventive spray on young soybean plants, inoculation after 24 hours, evaluated 11 days after inoculation, 0% = control plants, 100% = no disease, read-out: efficacy. As for the experimental part:
Example A: in vivo preventive test on Phakospora pachyrhizi (soybean rust) [table] The active ingredients were made soluble and homogenized in a mixture of Dimethyl sulfoxide/Acetone/ /Tween® 80 and then diluted in water to the desired concentration. The young plants of soybean were treated by spraying the active ingredient prepared as described above. Control plants were treated only with an aqueous solution of Acetone/Dimethyl sulfoxide/ Tween® 80. After 24 hours, the plants were contaminated by spraying the leaves with an aqueous suspension of Phakospora pachyrhizi spores. The contaminated soybean plants were incubated for 24 hours at 24°C and at 100% relative humidity and then for 10 days at 24°C and at 70-80% relative humidity. The test was evaluated 11 days after the inoculation. 0% means an efficacy which corresponds to that of the control plants while an efficacy of 100% means that no disease was observed.

Data set [2] is described as follows: LogP measurement by HPLC on reversed phase columns (EEC directive 79/831 Annex V.A8). It is filed as physicochemical. An outline of the steps:
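Reversed-phase HPLC with LC-UV per EEC directive 79/831 Annex V.A8, linear 10–95% acetonitrile gradient. Aqueous phase was 0.1% formic acid (acidic), 0.001 molar ammonium acetate (neutral) or 0.1% phosphoric acid (acidic), by method.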

The mark [3] stands for this setting: method [a]: LC-UV, acidic range, 0.1% formic acid in water and acetonitrile as eluent (linear gradient 10% to 95% acetonitrile).
[4] abbreviates: reversed phase HPLC columns, method [a]: LC-UV, acidic range, 0.1% formic acid in water and acetonitrile as eluent (linear gradient 10% to 95% acetonitrile).
Where [5] appears, read: reversed phase HPLC columns, method [b]: LC-UV, neutral range, 0.001 molar ammonium acetate solution in water and acetonitrile as eluent (linear gradient 10% to 95% acetonitrile).

Each structure is given as a SMILES string.

The chromatographic logP is a lipophilicity value derived from retention on a column. Low readings indicate a more hydrophilic compound, high ones a more lipophilic compound.

For the compound `CCN(C)C=Nc1cc(C)c([S+]([O-])c2ccccc2C#N)cc1C` (stereo not drawn) [Example I-052, N'-[4-(2-cyanophcnyl)sulfinyl-2,5-dimethylphenyl]-N-ethyl-N-methylmethanimidamide], the efficacy entry in data set [1] is “at least 70%”. Also, the chromatographic logP in data set [2] (setting [3]) turned out to be 0.73.
Consider `CCN(C)C=Nc1cc(C#N)c(Sc2ccccc2)cc1C` [Example I-054, N'-(5-cyano-2-methyl-4-phenylsulfanylphenyl)-N-ethyl-N-methylmethanimidamide], for which, in data set [1], the pest or weed control at 500 ppm is at least 70%. The same compound gave a chromatographic logP in data set [2] (setting [4]) of 1.42.
In the case of `CCN(C)C=Nc1cc(C#N)c(Sc2ccccc2C)cc1C` [Example I-058, N'-[5-cyano-2-methyl-4-[(2-methylphenyl)thio]phenyl]-N-ethyl-N-methylmethanimidamide], the pest or weed control at 500 ppm in data set [1] was at least 70%. In data set [2] (setting [4]), this compound returned a chromatographic logP of 1.61.
Consider `CCN(C)C=Nc1cc(C#N)c(Sc2ccccc2Cl)cc1C` [Example I-060, N'-[4-[(2-chlorophenyl)thio]-5-cyano-2-methylphenyl]-N-ethyl-N-methylmethanimidamide], for which, in data set [1], the pest or weed control at 500 ppm was at least 70%. Further, in data set [2] (setting [4]), the chromatographic logP came out at 1.66.
As to `CCN(C)C=Nc1cc(Cl)c(Sc2ccccc2Cl)cc1C` [Example I-066, N'-[5-chloro-4-[(2-chlorophenyl)thio]-2-methylphenyl]-N-ethyl-N-methylmethanimidamide], in data set [1], the pest or weed control at 500 ppm is at least 70%. The chromatographic logP in data set [2] (setting [4]) was 1.84.
Taken in the same sequence, the figures for `CCN(C)C=Nc1cc(Cl)c(Sc2ccccc2C#N)cc1C` [Example I-067, N'-[5-chloro-4-[(2-cyanophenyl)thio]-2-methylphenyl]-N-ethyl-N-methylmethanimidamide] were at least 70% and 1.53.
Taken in the same sequence, the figures for `CCN(C)C=Nc1cc(Br)c(Sc2ccccc2C#N)cc1C` [Example I-068, N'-[5-bromo-4-[(2-cyanophenyl)thio]-2-methylphenyl]-N-ethyl-N-methylmethanimidamide] were at least 70% and 1.53.
`CCN(C)C=Nc1cc(C)c(Sc2ccccc2C#N)cc1C` [Example I-069, N'-[4-[(2-cyanophenyl)thio]-2,5-dimethylphenyl]-N-ethyl-N-methylmethanimidamide]: the pest or weed control at 500 ppm in data set [1] was at least 70%. Further, the chromatographic logP in data set [2] (setting [4]) came out at 1.42.
`CCN(C)C=Nc1cc(C)c(Sc2ccccc2F)cc1Br` [Example I-077, N'-[2-bromo-4-[(2-fluorophenyl)thio]-5-methylphenyl]-N-ethyl-N-methylmethanimidamide]: the pest or weed control at 500 ppm in data set [1] is at least 70%. The compound also gave a chromatographic logP in data set [2] (setting [4]) of 1.75.
Taken in the same sequence, the figures for `CCN(C)C=Nc1cc(C)c(Sc2ccccc2C)cc1Br` [Example I-078, N'-[2-bromo-5-methyl-4-[(2-methylphenyl)thio]phenyl]-N-ethyl-N-methylmethanimidamide] were at least 70% and 1.92.
Turning to `CCN(C)C=Nc1cc(C)c(Sc2ccccc2F)cc1C(C)C` [Example I-082, N-ethyl-N'-[4-[(2-fluorophenyl)thio]-2-isopropyl-5-methylphenyl]-N-methylmethanimidamide], the pest or weed control at 500 ppm in data set [1] was at least 70%. The compound further had a chromatographic logP in data set [2] (setting [4]) of 1.9.
With `CCN(C)C=Nc1cc(C)c(Sc2ccccc2C)cc1C1CC1` [Example I-085, N'-[2-cyclopropyl-5-methyl-4-[(2-methylphenyl)thio]phenyl]-N-ethyl-N-methylmethanimidamide], the pest or weed control at 500 ppm in data set [1] is at least 70%. This compound also yielded a chromatographic logP in data set [2] (setting [4]) of 1.99.
`CCc1cc(Sc2ccccc2F)c(C)cc1N=CN(C)CC` [Example I-087]: in data set [1], the efficacy result is given as “at least 70%”. Besides, the chromatographic logP in data set [2] (setting [3]) was determined as 1.77.
Turning to `CCN(C)C=Nc1cc(C)c(Sc2ccccc2)cc1C1CC1` [Example I-090, N'-(2-cyclopropyl-5-methyl-4-phenylsulfanylphenyl)-N-ethyl-N-methylmethanimidamide], the pest or weed control at 500 ppm in data set [1] is at least 70%. In addition, the chromatographic logP in data set [2] (setting [4]) came to 1.77.
Turning to `CCc1cc(S(=O)(=O)c2ccccc2C)c(C)cc1N=CN(C)CC` [Example I-091, N-ethyl-N'-[2-ethyl-5-methyl-4-(2-methylphenyl)sulfonylphenyl]-N-methylmethanimidamide], the pest or weed control at 500 ppm in data set [1] is at least 70%. Also, the chromatographic logP in data set [2] (setting [4]) was 1.37.
In the same order, the values of `CCN(C)C=Nc1cc(C)c(Sc2ccccc2F)cc1C1CC1` [Example I-097, N'-[2-cyclopropyl-4-[(2-fluorophenyl)thio]-5-methylphenyl]-N-ethyl-N-methylmethanimidamide] are at least 70% and 1.8.
As for `CCN(C)C=Nc1cc(C)c(Sc2ccccc2Cl)cc1Br` [Example I-098, N'-[2-bromo-4-[(2-chlorophenyl)thio]-5-methylphenyl]-N-ethyl-N-methylmethanimidamide], in data set [1], the pest or weed control at 500 ppm is at least 70%. Moreover, in data set [2] (setting [4]), the chromatographic logP is 2.05.
`CCN(C)C=Nc1cc(C)c(Sc2ccccc2Cl)cc1C1CC1` [Example I-099, N'-[4-[(2-chlorophenyl)thio]-2-cyclopropyl-5-methylphenyl]-N-ethyl-N-methylmethanimidamide]: the pest or weed control at 500 ppm in data set [1] is at least 70%. The compound also came in with a chromatographic logP in data set [2] (setting [4]) of 1.99.
Regarding `CCN(C)C=Nc1cc(C)c(Sc2ccccc2C#N)cc1C1CC1` [Example I-100, N'-[4-[(2-cyanophenyl)thio]-2-cyclopropyl-5-methylphenyl]-N-ethyl-N-methylmethanimidamide], in data set [1], the pest or weed control at 500 ppm is at least 70%. Besides, the chromatographic logP came to 1.6 in data set [2] (setting [4]) and 4.74 in data set [2] (setting [5]).
`CCN(C)C=Nc1cc(C)c(Sc2ccccc2C#N)cc1C(C)C` [Example I-101, N'-[4-[(2-cyanophenyl)thio]-2-isopropyl-5-methylphenyl]-N-ethyl-N-methylmethanimidamide]: in data set [1], the pest or weed control at 500 ppm was at least 70%. Further, the chromatographic logP in data set [2] (setting [4]) turned out to be 1.72; in data set [2] (setting [5]), 5.3.
For `CCc1cc(Sc2ccccc2C#N)c(C)cc1N=CN(C)CC` [Example I-102, N'-[4-[(2-cyanophenyl)thio]-2-ethyl-5-methylphenyl]-N-ethyl-N-methylmethanimidamide], the pest or weed control at 500 ppm in data set [1] is at least 70%. The chromatographic logP in data set [2] (setting [4]) worked out at 1.58; in data set [2] (setting [5]) it was 4.95.
`CCc1cc(Sc2ccccc2Cl)c(C)cc1N=CN(C)CC` [Example I-103, N'-[4-[(2-chlorophenyl)thio]-2-ethyl-5-methylphenyl]-N-ethyl-N-methylmethanimidamide]: in data set [1], the pest or weed control at 500 ppm is at least 70%. Besides, the chromatographic logP in data set [2] (setting [4]) is 1.99; in data set [2] (setting [5]), 6.2.
